Results: patent US9119856B1, “Method for treating cancer using a dihydropyrimidine derivative” (KING SAUD UNIVERSITY, priority 2015, dated 2015)
“Also recorded” adds a separate entry of the source.

What was measured:
[1] = tested on: MDA-MB-468 (breast cancer xenograft); experiment: Antitumor activity in mice, MDA-MB-468 breast cancer xenograft; assay type: in vivo, Nude mice; settings: 50 mg/Kg intraperitoneal daily for 14 days
Method: (§1) Nude mice (Jackson Laboratories, Bar Harbor, Me., USA) were injected with 4*106 cells of MDA-MB-468 and LOVO subcutaneously in the right flank, and tumor size was measured weekly using a caliper. When the tumor reached approximately 400 mm^3 […], the mice were divided into control treated groups, the treatment including administration of DHP-5 (50 mg/Kg) via intraperitoneal injection daily for 14 days. The general toxicity of the treatment was determined by measuring the total body weight of the treated and control mice. The breeding, care and sacrifice of the animals were in accordance with the protocols approved by the Animal Care and Use Committee of the King Faisal Specialist Hospital and Research Centre.
(§2) Tumor growth of MDA-MB-468 (breast cancer xenograft) and LOVO (colon cancer xenograft) was recorded in untreated mice groups and DHP-5 (50 mg/kg) treated mice groups.

[2] = General toxicity by total body weight of treated mice; assay type: in vivo; settings: animal models of breast and colon cancer
Method: as §1

[3] = Apoptosis induction in vitro; assay type: cell-based
[4] = tested on: MCF-7 cells; experiment: Flow cytometric DNA cell cycle analysis; assay type: cell-based, human; settings: DHP-5 treated vs untreated
Method: 2×10^6 cells were fixed in 1 ml ethanol (70%) for 60 min. at room temperature. Harvested cells were resuspended in 1 ml Na citrate (50 mM) containing 250 μg RNase A and incubated at 50° C. for 60 min. Next, cells were resuspended in the same buffer containing 4 μg propidium iodine (PI) and incubated for 30 min. before being analyzed by flow cytometry (Becton Dickinson, San Jose, Calif., USA). The percentage of cells in various cell cycle phases was determined by using Cell Quest Pro software (Becton Dickinson).

[5] = tested on: lovo colon cancer cells; experiment: Side population inhibition on lovo colon cancer cells; assay type: cell-based
Method: The relationship of compound structure and compound activity of various Formula I compounds, i.e., 5-benzoyl-3,4-dihydropyrimidin-2(1H)-one/thione compounds, on inhibition of side population cancer stem cells was studied. The various 5-benzoyl-3,4-dihydropyrimidin-2(1H)-one/thione compounds and the corresponding inhibition activity are provided below in Table 1.
The newly synthesized compounds DHP (1-9) were evaluated for side population inhibition on lovo colon cancer cells (%) at 10 μM concentration. […] It was noted that most of the compounds which include a methoxy group at R1 were active. The methoxy group seems to help the molecule to align in protein pocket. Compounds with an oxygen atom at R2 were also active. It seems that the oxygen atom at position R2 also plays some important role in binding with protein pocket.
For DCV staining, cells were pelleted and suspended in DMEM cell culture medium at a concentration of 1*10^6 cells/ml. DCV (Invitrogen Molecular Probes®, Eugene, Oreg.) was added at a final staining concentration of 10 μM, as this concentration gave optimal separation between SP and non SP cells. PI stained was used to exclude dead cells. Functionally, to gate only side population cells, Verapamil 200 μM or FTC 10 μg/ml was used. All analyses were performed on a FACS LSRII (BD Biosciences). […]

[6] = Cell proliferation in vitro; assay type: cell-based
[7] = tested on: breast cancer cells; experiment: Self-renewal ability of breast cancer cells; assay type: cell-based
[8] = tested on: ABCG2; experiment: Immunofluorescence staining of ABCG2 in MCF-7 cells; assay type: cell-based, human
[9] = tested on: MCF-7 breast cancer cells; experiment: Side population analysis of MCF-7 breast cancer cells (DyeCycle Violet staining); assay type: cell-based, human; settings: DHP-5 50, 75 and 100 μM, Verapamil 200 μM
Method: (§3) For DCV staining, cells were pelleted and suspended in DMEM cell culture medium at a concentration of 1*10^6 cells/ml. DCV (Invitrogen Molecular Probes®, Eugene, Oreg.) was added at a final staining concentration of 10 μM, as this concentration gave optimal separation between SP and non SP cells. PI stained was used to exclude dead cells. Functionally, to gate only side population cells, Verapamil 200 μM or FTC 10 μg/ml was used. All analyses were performed on a FACS LSRII (BD Biosciences). Debris and cell clusters were excluded during side-scatter and forward-scatter analyses.

[10] = molecular target: T1, ABCG2 (Homo sapiens, UniProt Q9UNQ0); experiment: Mitoxantrone accumulation in MCF-7 cells; assay type: cell-based
T1 construct: endogenous in cells; host or cells: MCF-7 cells
T1 sequence (Q9UNQ0 1-655): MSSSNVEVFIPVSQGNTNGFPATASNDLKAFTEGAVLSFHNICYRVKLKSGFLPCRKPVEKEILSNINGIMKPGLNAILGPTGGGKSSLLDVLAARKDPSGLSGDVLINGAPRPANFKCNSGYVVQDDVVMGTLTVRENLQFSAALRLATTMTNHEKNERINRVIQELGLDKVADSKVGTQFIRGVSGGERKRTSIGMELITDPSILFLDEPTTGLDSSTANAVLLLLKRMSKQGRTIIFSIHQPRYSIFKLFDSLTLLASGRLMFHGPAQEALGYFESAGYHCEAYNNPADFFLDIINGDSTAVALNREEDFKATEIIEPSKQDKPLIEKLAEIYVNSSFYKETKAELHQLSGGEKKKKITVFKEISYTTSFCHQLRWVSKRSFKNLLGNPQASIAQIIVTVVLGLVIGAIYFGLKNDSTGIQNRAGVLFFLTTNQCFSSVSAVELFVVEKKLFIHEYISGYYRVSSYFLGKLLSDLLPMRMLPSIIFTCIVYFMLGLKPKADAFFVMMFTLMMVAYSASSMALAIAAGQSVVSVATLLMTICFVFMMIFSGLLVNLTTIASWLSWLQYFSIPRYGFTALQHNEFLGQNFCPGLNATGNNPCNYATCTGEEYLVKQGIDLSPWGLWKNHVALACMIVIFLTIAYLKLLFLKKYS

[11] = tested on: LOVO (colon cancer xenograft); experiment: Antitumor activity in mice, LOVO colon cancer xenograft; assay type: in vivo, Nude mice; settings: 50 mg/Kg intraperitoneal daily for 14 days
Method: as §1, §2

[12] = tested on: tumor derived cells of LOVO xenograft; experiment: Side population analysis of tumor derived cells of LOVO xenograft; assay type: in vivo, Nude mice; settings: DHP-5 50 mg/kg for 14 days, Verapamil 200 μM
Method: as §3
A side population analysis of tumor derived cells of LOVO xenograft that were untreated (FIG. 4A), treated with side population inhibitor reference drug Verapamil 200 μM (FIG. 4B), and side population analysis of tumor cells derived from animals treated by DHP-5 50 mg/kg for 14 days.
as §1, with “The breeding, care and sacrifice of the animals were in accordance with the protocols approved by the Animal Care and Use Committee of the King Faisal Specialist Hospital and Research Centre.” left out

## CCOc1ccc(C2NC(=O)NC=C2C(=O)c2cc(OC)c(OC)c(OC)c2)cc1 (stereo not shown) [DHP-5, 4-(4-ethoxyphenyl)-5-(3,4,5-trimethoxybenzoyl)-3,4-dihydropyrimidin-2(1H)-one]
[1]
  tumor growth, MDA-MB-468 breast cancer xenograft: superior efficacy compared to reference drug Doxorubicin; also recorded: shrinking of tumor
[2]
  general toxicity: without any sign of general toxicity
[3]
  apoptosis: induced apoptosis
[4]
  cell cycle phase distribution: increased accumulation of treated cells in G2+M mitosis phase
[5]; 10 μM
  side population inhibition, activity in words: moderately active
[5]; Homo sapiens
  inhibition at 10 µM: 58.8%
[6]
  cell proliferation: blocked cell proliferation
[7]
  self-renewal ability of breast cancer cells: blocking self-renewal ability of breast cancer cells in a dose dependent manner
[8]
  expression of ABCG2: decreased the expression of ABCG2
[9]
  inhibitory effect on side population cancer stem cells versus Verapamil: more potent inhibitor of side population cells than reference drug Verapamil; also recorded: more potent inhibitory effect of DHP-5 on side population cancer stem cells than reference drug Verapamil
[10]
  Mitoxantrone accumulation (selective ABCG2 substrate): increase in Mitoxantrone accumulation
[11]
  tumor growth, LOVO colon cancer xenograft: superior efficacy compared to reference drug Doxorubicin; also recorded: shrinking of tumor
[12]
  inhibitory effect on side population cancer stem cells of xenograft tumor cells versus Verapamil: more potent inhibitory effect of DHP-5 on side population cancer stem cells than reference drug Verapamil
